Source: patent US7932270B2 (Cytokinetics, Inc., priority 2006, dated 2011)

Biological target: T1, chicken gizzard smooth muscle myosin subfragment-1 chemically crosslinked to cardiac or skeletal actin (Gallus gallus, UniProt P10587)
T1 construct: chicken gizzard smooth muscle myosin subfragment-1; from tissue; host or cells: chicken gizzard
Experiment: Smooth muscle myosin ATPase dose response assay (pyruvate kinase/horseradish peroxidase/pyruvate oxidase-coupled, amplex red fluorescence)
Assay type: biochemical
Conditions: read-out: IC50 Arithmetic Mean
Outline: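 Lead-optimization format: ATPase coupled via pyruvate kinase, pyruvate oxidase and peroxidase, pH 7.00 at 22° C, with 0.15 mM ATP, 100 mM KCl, 2 mM MgCl2, 2 mM phosphate and 0.1 mM amplex red (final). Crosslinked S1 titrated empirically for set hydrolysis rate; fluorescence (ex 480/em 615 nm) dose curves fit 4-parameter for IC50.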

T1 sequence (P02607 2-151): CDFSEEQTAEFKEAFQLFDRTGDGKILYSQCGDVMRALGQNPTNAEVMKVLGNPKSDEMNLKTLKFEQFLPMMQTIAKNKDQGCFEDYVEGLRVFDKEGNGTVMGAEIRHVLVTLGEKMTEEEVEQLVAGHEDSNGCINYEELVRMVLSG
T1 sequence (P10587 84-789): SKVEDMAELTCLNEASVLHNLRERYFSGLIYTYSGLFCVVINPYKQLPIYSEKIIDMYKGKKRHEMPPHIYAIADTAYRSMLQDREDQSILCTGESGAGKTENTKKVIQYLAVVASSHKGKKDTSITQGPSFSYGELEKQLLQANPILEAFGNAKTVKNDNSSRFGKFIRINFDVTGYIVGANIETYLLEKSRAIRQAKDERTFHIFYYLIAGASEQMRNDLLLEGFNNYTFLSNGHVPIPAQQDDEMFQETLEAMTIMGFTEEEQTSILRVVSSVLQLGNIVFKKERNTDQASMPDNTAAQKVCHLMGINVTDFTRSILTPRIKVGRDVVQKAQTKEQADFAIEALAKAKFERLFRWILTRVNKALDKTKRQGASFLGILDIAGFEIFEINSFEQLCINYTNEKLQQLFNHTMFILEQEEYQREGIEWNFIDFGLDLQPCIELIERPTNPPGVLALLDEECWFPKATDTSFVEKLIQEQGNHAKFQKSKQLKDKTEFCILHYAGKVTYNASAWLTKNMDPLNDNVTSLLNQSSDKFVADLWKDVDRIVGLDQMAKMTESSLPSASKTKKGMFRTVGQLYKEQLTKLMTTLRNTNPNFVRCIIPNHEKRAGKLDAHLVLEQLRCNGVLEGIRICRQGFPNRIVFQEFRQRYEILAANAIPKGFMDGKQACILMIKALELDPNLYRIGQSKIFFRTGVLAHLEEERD

Row | SMILES | IC50 [nM]
1 | CC(C)(C)OC(=O)NCCCC(=O)N1CCC[C@@H]1CNC(=O)c1ccc(-c2ccccc2C#N)nc1NCCc1cccc(F)c1 [N-[((2R)-1-{4-[(tert-butoxy)carbonylamino]butanoyl}pyrrolidin-2-yl)methyl](6-(2-cyanophenyl)-2-{[2-(3-fluorophenyl)ethyl]amino}(3-pyridyl))carboxamide] | 432
2 | C=CCNC(=O)c1ccc(-c2ccccc2)nc1NCCc1ccccn1 [{6-phenyl-2-[(2-(2-pyridyl)ethyl)amino](3-pyridyl)}-N-prop-2-enylcarboxamide] | 3120
3 | CC(=O)N[C@H](C)CNC(=O)c1cc(F)c(-c2cnn(C)c2)nc1NCCc1cccc(F)c1 | 251
4 | CC(C)(C)OC(=O)NCCc1ncccc1CNC(=O)c1ccc(-c2ccccc2C#N)nc1NCCc1cccc(F)c1 [N-[(2-{2-[(tert-butoxy)carbonylamino]ethyl}(3-pyridyl))methyl](6-(2-cyanophenyl)-2-{[2-(3-fluorophenyl)ethyl]amino}(3-pyridyl))carboxamide] | 470
5 | CNC(=O)CNC(=O)c1ccc(-c2ccccc2)nc1NCCc1ccccc1 [N-methyl-2-({6-phenyl-2-[(2-phenylethyl)amino](3-pyridyl)}carbonylamino)acetamide] | 486
6 | O=C(NCc1cccnc1)c1ccc(-c2ccccc2)nc1NCCc1cccnc1 [{6-phenyl-2-[(2-(3-pyridyl)ethyl)amino](3-pyridyl)}-N-(3-pyridylmethyl)carboxamide] | 2190
7 | O=C(NCc1ccc(-c2ccccc2)nc1NCCc1cccc(F)c1)Nc1cccnc1 [N-[(2-{[2-(3-fluorophenyl)ethyl]amino}-6-phenyl(3-pyridyl))methyl](3-pyridylamino)carboxamide] | 71000
8 | NCc1ccnc(CNC(=O)c2ccc(-c3ccccc3)nc2NCCc2cccc(F)c2)c1 [N-{[4-(aminomethyl)(2-pyridyl)]methyl}(2-{[2-(3-fluorophenyl)ethyl]amino}-6-phenyl(3-pyridyl))carboxamide] | 1210

Other lines, results leading:

Row | IC50 [nM] | SMILES
9 | 2960 | CNC(=O)CCCNC(=O)c1ccc(-c2ccccc2C#N)nc1NCCc1cccc(F)c1 [4-[(6-(2-cyanophenyl)-2-{[2-(3-fluorophenyl)ethyl]amino}(3-pyridyl))carbonylamino]-N-methylbutanamide]
10 | 42 | N#Cc1ccccc1-c1nc(NCCc2cccc(F)c2)c(C(=O)NC[C@H]2CCC(=O)N2CCCN)cc1F [N-{[(2R)-1-(3-aminopropyl)-5-oxopyrrolidin-2-yl]methyl}(6-(2-cyanophenyl)-5-fluoro-2-{[2-(3-fluorophenyl)ethyl]amino}(3-pyridyl))carboxamide]
11 | 1120 | COC(=O)NCCNC(=O)c1ccc(-c2ccccc2C#N)nc1NCCc1cccc(F)c1 [(6-(2-cyanophenyl)-2-{[2-(3-fluorophenyl)ethyl]amino}(3-pyridyl))-N-[2-(methoxycarbonylamino)ethyl]carboxamide]
12 | 29 | N#Cc1ccccc1-c1ccc(C(=O)NC[C@H]2CCCN2C(=O)CCCN)c(NCCc2cccc(F)c2)n1 [N-{[(2R)-1-(4-aminobutanoyl)pyrrolidin-2-yl]methyl}(6-(2-cyanophenyl)-2-{[2-(3-fluorophenyl)ethyl]amino}(3-pyridyl))carboxamide]
13 | 173 | N#Cc1ccccc1-c1ccc(C(=O)NC[C@H]2CCCN(C(=O)CCN)C2)c(NCCc2cccc(F)c2)n1 [N-{[(3R)-1-(3-aminopropanoyl)(3-piperidyl)]methyl}(6-(2-cyanophenyl)-2-{[2-(3-fluorophenyl)ethyl]amino}(3-pyridyl))carboxamide]
14 | 119 | CC(=O)N1CCC[C@@H]1CNC(=O)c1ccc(-c2ccccc2C#N)nc1NCCc1cccc(F)c1 [N-[((2R)-1-acetylpyrrolidin-2-yl)methyl](6-(2-cyanophenyl)-2-{[2-(3-fluorophenyl)ethyl]amino}(3-pyridyl))carboxamide]
15 | 18500 | N#Cc1ccccc1-c1ccc(C(=O)N[C@H]2CCCN(CCN)C2=O)c(NCCc2cccc(F)c2)n1 (stereo in doubt) [N-[1-(2-aminoethyl)-2-oxo(3-piperidyl)](6-(2-cyanophenyl)-2-{[2-(3-fluorophenyl)ethyl]amino}(3-pyridyl))carboxamide]
